Laboratory results taken from the NIST ThermoML archive (doi:10.1021/je9003178).
Numbers after ± are expanded uncertainties.

Assay: activity coefficient (dimensionless); of the first substance listed, at infinite dilution; xn = mol fraction of the nth substance listed
Conditions: Liquid, Chromatography, x1 = 0

Row | SMILES | activity coefficient (322.65 K) | activity coefficient (332.85 K) | activity coefficient (343.15 K) | activity coefficient (343.85 K) | activity coefficient (352.65 K)
1 | CCCCCCCCCCC [undecane] + CCn1cc[n+](C)c1.N#CN=C=[N-] | 1030 ± 50 | 926 ± 44 | 834 ± 40 | – | –
2 | Cc1cccc(C)c1 [1,3-dimethylbenzene] + CCn1cc[n+](C)c1.N#CN=C=[N-] | 7.4 ± 0.34 | 8.39 ± 0.38 | 7.27 ± 0.33 | – | –
3 | Cc1ccccc1 [toluene] + CCn1cc[n+](C)c1.N#CN=C=[N-] | 4.22 ± 0.19 | 4.21 ± 0.19 | 4.21 ± 0.19 | – | –
4 | CCCCCCCCCCCC [dodecane] + CCCCCC[N+](C)(C)C.O=S(=O)([N-]S(=O)(=O)C(F)(F)F)C(F)(F)F | 68.1 ± 3.2 | – | – | 55.8 ± 2.6 | 52.9 ± 2.5
5 | ClCCl [dichloromethane] + CCCCCC[N+](C)(C)C.O=S(=O)([N-]S(=O)(=O)C(F)(F)F)C(F)(F)F | 0.678 ± 0.03 | – | – | 0.728 ± 0.029 | 0.759 ± 0.029
6 | C1CCCCCC1 [cycloheptane] + CCn1cc[n+](C)c1.N#CN=C=[N-] | 128 ± 6 | 169 ± 8 | 221 ± 10 | – | –
7 | CC(C)CO [2-methyl-1-propanol] + CCCCCC[N+](C)(C)C.O=S(=O)([N-]S(=O)(=O)C(F)(F)F)C(F)(F)F | 2.1 ± 0.095 | – | – | 1.71 ± 0.071 | 1.63 ± 0.066
8 | Cc1ccccc1C [1,2-dimethylbenzene] + CCCCCC[N+](C)(C)C.O=S(=O)([N-]S(=O)(=O)C(F)(F)F)C(F)(F)F | 1.66 ± 0.068 | – | – | 1.69 ± 0.07 | 1.76 ± 0.075
9 | Cc1ccc(C)cc1 [1,4-dimethylbenzene] + CCCCCC[N+](C)(C)C.O=S(=O)([N-]S(=O)(=O)C(F)(F)F)C(F)(F)F | 1.82 ± 0.079 | – | – | 1.82 ± 0.079 | 1.86 ± 0.081
10 | C[N+](=O)[O-] [nitromethane] + CCn1cc[n+](C)c1.N#CN=C=[N-] | 0.66 ± 0.03 | 0.64 ± 0.03 | 0.63 ± 0.03 | – | –
11 | CCCCCCCCCC [decane] + CCn1cc[n+](C)c1.N#CN=C=[N-] | 699 ± 33 | 627 ± 30 | 565 ± 27 | – | –
12 | CCCCCCCCCCC [undecane] + CCCCCC[N+](C)(C)C.O=S(=O)([N-]S(=O)(=O)C(F)(F)F)C(F)(F)F | 51.2 ± 2.4 | – | – | 42 ± 2 | 39.7 ± 1.8
13 | CCCCCCCCCCCCCC [tetradecane] + CCn1cc[n+](C)c1.N#CN=C=[N-] | 2500 ± 120 | 2330 ± 110 | 2190 ± 110 | – | –
14 | CCCCCCCCCCCCC [tridecane] + CCn1cc[n+](C)c1.N#CN=C=[N-] | 1940 ± 94 | 1780 ± 86 | 1650 ± 79 | – | –
15 | CCc1ccccc1 [ethylbenzene] + CCn1cc[n+](C)c1.N#CN=C=[N-] | 7.43 ± 0.34 | 7.38 ± 0.34 | 7.29 ± 0.33 | – | –
16 | CCC[N+](=O)[O-] [1-nitropropane] + CCn1cc[n+](C)c1.N#CN=C=[N-] | 1.51 ± 0.06 | 1.5 ± 0.06 | 1.49 ± 0.06 | – | –
17 | c1ccncc1 [pyridine] + CCCCCC[N+](C)(C)C.O=S(=O)([N-]S(=O)(=O)C(F)(F)F)C(F)(F)F | 0.336 ± 0.035 | – | – | 0.589 ± 0.031 | 0.607 ± 0.031
18 | CCC=O [propanal] + CCn1cc[n+](C)c1.N#CN=C=[N-] | 1.4 ± 0.05 | 1.39 ± 0.05 | 1.37 ± 0.05 | – | –
19 | C1CCCCC1 [cyclohexane] + CCn1cc[n+](C)c1.N#CN=C=[N-] | 46 ± 2.1 | 42.1 ± 2 | 38.7 ± 1.8 | – | –
20 | C#CCCCCC [1-heptyne] + CCCCCC[N+](C)(C)C.O=S(=O)([N-]S(=O)(=O)C(F)(F)F)C(F)(F)F | 3.57 ± 0.16 | – | – | 3.5 ± 0.16 | 3.54 ± 0.16
21 | CC(C)CO [2-methyl-1-propanol] + CCn1cc[n+](C)c1.N#CN=C=[N-] | 1.48 ± 0.06 | 1.4 ± 0.05 | 1.33 ± 0.05 | – | –
22 | CC(C)CC(C)(C)C [2,2,4-trimethylpentane] + CCn1cc[n+](C)c1.N#CN=C=[N-] | 202 ± 9.5 | 180 ± 8.5 | 162 ± 7.6 | – | –
23 | CCN(CC)CC [triethylamine] + CCCCCC[N+](C)(C)C.O=S(=O)([N-]S(=O)(=O)C(F)(F)F)C(F)(F)F | 4.53 ± 0.21 | – | – | 4.83 ± 0.22 | 5.04 ± 0.23
24 | CC1CCCC1 [methylcyclopentane] + CCn1cc[n+](C)c1.N#CN=C=[N-] | 50.3 ± 2.4 | 46.5 ± 2.2 | 43.2 ± 2 | – | –
25 | C=O [methanal] + CCn1cc[n+](C)c1.N#CN=C=[N-] | 0.32 ± 0.04 | 0.35 ± 0.04 | 0.37 ± 0.03 | – | –
26 | CCCCO [butan-1-ol] + CCCCCC[N+](C)(C)C.O=S(=O)([N-]S(=O)(=O)C(F)(F)F)C(F)(F)F | 2.25 ± 0.1 | – | – | 1.83 ± 0.079 | 1.74 ± 0.073
27 | CCCO [propan-1-ol] + CCCCCC[N+](C)(C)C.O=S(=O)([N-]S(=O)(=O)C(F)(F)F)C(F)(F)F | 1.83 ± 0.079 | – | – | 1.51 ± 0.058 | 1.41 ± 0.052
28 | CCOC(C)=O [ethyl acetate] + CCCCCC[N+](C)(C)C.O=S(=O)([N-]S(=O)(=O)C(F)(F)F)C(F)(F)F | 0.72 ± 0.029 | – | – | 0.748 ± 0.029 | 0.776 ± 0.028
